{"source": "ChEMBL document CHEMBL5226289", "about": "“Discovery of natural anti-inflammatory alkaloids: Potential leads for the drug discovery for the treatment of inflammation” (Eur J Med Chem, 2021)", "note": "Residues, ends and D or L forms follow the SMILES beside them. *: point of attachment. Cbz = O=C(OCc1ccccc1)*", "data": [{"system": "RAW264.7", "assay": "Antiinflammatory activity in mouse RAW264.7 cells assessed as inhibition of LPS-stimulated iNOS activity preincubated with compound for 24 hrs followed by LPS stimulation for 2 hrs and measured 2 hrs after NADPH addition by fluorescence based assay", "assay_type": "functional, cell-based", "conditions": "not given", "units": {"IC50": "µM"}, "values": [{"smiles": "CC(C)C[C@@H](C=O)NC(=O)[C@H](CC(C)C)NC(=O)[C@H](CC(C)C)NC(=O)OCc1ccccc1", "note": "[MG-132] (Cbz-Leu-Leu-Leu-aldehyde)", "IC50": 0.2}]}, {"system": "RAW264.7", "assay": "Inhibition of NO production in LPS-induced mouse RAW264.7 cells", "assay_type": "functional, cell-based", "conditions": "not given", "units": {"IC50": "µM"}, "values": [{"smiles": "COC1=C[C@@]23CCN(C)[C@@H](Cc4c(CN5CCc6cc(OC)c(OC)c7c6[C@H]5CC75C=CC(=O)C=C5)cc(OC)c(O)c42)C3=CC1=O", "IC50": 1.39}, {"smiles": "C[C@@H]1C[C@@H]2CCCN2[C@H](CC(=O)C[C@H]2N3CCC[C@H]3C[C@@H](C)[C@]2(O)c2ccccc2)[C@H]1c1ccccc1", "IC50": 16.1}, {"smiles": "O=C(O)c1cc(C(=O)c2ccco2)n2c1CCC2", "IC50": 22.8}, {"smiles": "C[C@@H]1C[C@H]2[C@@H]3CCC4=CC(=O)C=C[C@]4(C)[C@@]3(F)[C@@H](O)C[C@]2(C)[C@@]1(O)C(=O)CO", "note": "[DEXAMETHASONE]", "IC50": 47}, {"smiles": "CN1CCc2cc3c(c4c2[C@H]1Cc1c(O)cccc1-4)OCO3", "IC50": 1.39}, {"smiles": "C[C@@H]1C[C@@H]2CC[C@@H]3[C@@H](C(=O)C[C@@H]4N5CCCC5C[C@H](C)[C@@]4(O)c4ccccc4)[C@](C)(O)C[C@H](N23)[C@@]1(O)c1ccccc1", "note": "(stereo not given in full)", "IC50": 14.3}]}, {"system": "not listed separately", "assay": "Antiinflammatory activity in rat polymorphonuclear leucocyte cells assessed as inhibition of PAF-induced beta-glucuronidase release at 10 uM relative to control", "assay_type": "functional", "conditions": "not given", "units": {"inhibition at 10 µM": "%"}, "values": [{"smiles": "COC1O[C@H]([C@H]2c3cc4c(cc3CCN2C)OCO4)c2ccc3c(c21)OCO3", "note": "(stereo not given in full)", "inhibition at 10 µM": 37.7}, {"smiles": "CN1CCc2cc3c(cc2[C@@H]1[C@H]1OC(=O)c2c1ccc1c2OCO1)OCO3", "inhibition at 10 µM": 34.8}, {"smiles": "C[C@@H]1C(=O)O[C@H]2C(O)C34[C@H]5C[C@@H](C(C)(C)C)[C@]36[C@@H](OC(=O)[C@@H]6O)O[C@@]4(C(=O)O5)[C@@]12O", "note": "(stereo not given in full)", "inhibition at 10 µM": 51.3}, {"smiles": "CN1CCc2cc3c(cc2[C@@H]1[C@H]1OC(O)c2c1ccc1c2OCO1)OCO3", "note": "(stereo not given in full)", "inhibition at 10 µM": 36.5}, {"smiles": "CN1Cc2cc3c(cc2Cc2ccc4c(c2C1)OCO4)OCO3", "inhibition at 10 µM": 39.6}]}, {"system": "RAW264.7", "assay": "Antiinflammatory activity against LPS-stimulated mouse RAW264.7 cells assessed as inhibition of TNFalpha production at 20 uM preincubated for 27 hrs followed by LPS stimulation and measured after 12 hrs by ELISA analysis relative to control", "assay_type": "functional", "conditions": "time 39 hrs", "units": {"inhibition at 20 µM": "%"}, "values": [{"smiles": "CC1(C)C=Cc2c(ccc3c2NC(=O)[C@@]32C[C@]34NC(=O)[C@]5(CCCN5C3=O)C[C@H]4C2(C)C)O1", "inhibition at 20 µM": "> 32.6"}, {"smiles": "C=CC(C)(C)[C@@]1(C[C@@H]2NC(=O)[C@@H]3CCCN3C2=O)C(=O)Nc2c1ccc(O)c2CC=C(C)C", "inhibition at 20 µM": "> 32.6"}, {"smiles": "CC1(C)C=Cc2c(ccc3c4c([nH]c23)C(C)(C)[C@@H]2C[C@]35CCCN3C(=O)[C@]2(C4)NC5=O)O1", "inhibition at 20 µM": "> 32.6"}, {"smiles": "CC1(C)C=Cc2c(ccc3c4c(n(S(C)(=O)=O)c23)C(C)(C)[C@@H]2C[C@]35CCCN3C(=O)[C@]2(C4)NC5=O)O1", "inhibition at 20 µM": "> 32.6"}]}, {"system": "not listed separately", "assay": "Inhibition of NO production in LPS-stimulated mouse BV-2 cells incubated for 24 hrs by Griess reagent-based assay", "assay_type": "functional, cell-based", "conditions": "BV-2, 24 h", "units": {"IC50": "µM"}, "values": [{"smiles": "C[C@@H]1CC2CC(=O)C3CCCN4CCC[C@@]2(O)C34C1", "note": "(stereo not given in full)", "IC50": 4.2}, {"smiles": "CC(=O)O[C@@H]1C2C[C@@H](OC(C)=O)C3CCCN4CCC[C@@]2(O)C34C[C@@H]1C", "note": "(stereo not given in full)", "IC50": 4.2}, {"smiles": "C[C@@H]1CC2CC(=O)C3CCCN4CCCC2C34C1", "note": "(stereo not given in full)", "IC50": 4.2}, {"smiles": "C[C@@H]1CC2CC(=O)C3CCCN4CC[C@@H](O)[C@]2(O)C34C1", "note": "(stereo not given in full)", "IC50": 4.2}, {"smiles": "CC(=O)O[C@@H]1CC2C3CCCN4CCCC1C34C[C@H](C)[C@H]2O", "note": "(stereo not given in full)", "IC50": 4.2}, {"smiles": "C[C@H]1CC23C4CCCN2CCCC3[C@H](O)CC4[C@H]1O", "note": "(stereo not given in full)", "IC50": 4.2}]}, {"target": "Prostaglandin G/H synthase 1 (Homo sapiens, UniProt P23219)", "sequence (P23219 whole entry)": "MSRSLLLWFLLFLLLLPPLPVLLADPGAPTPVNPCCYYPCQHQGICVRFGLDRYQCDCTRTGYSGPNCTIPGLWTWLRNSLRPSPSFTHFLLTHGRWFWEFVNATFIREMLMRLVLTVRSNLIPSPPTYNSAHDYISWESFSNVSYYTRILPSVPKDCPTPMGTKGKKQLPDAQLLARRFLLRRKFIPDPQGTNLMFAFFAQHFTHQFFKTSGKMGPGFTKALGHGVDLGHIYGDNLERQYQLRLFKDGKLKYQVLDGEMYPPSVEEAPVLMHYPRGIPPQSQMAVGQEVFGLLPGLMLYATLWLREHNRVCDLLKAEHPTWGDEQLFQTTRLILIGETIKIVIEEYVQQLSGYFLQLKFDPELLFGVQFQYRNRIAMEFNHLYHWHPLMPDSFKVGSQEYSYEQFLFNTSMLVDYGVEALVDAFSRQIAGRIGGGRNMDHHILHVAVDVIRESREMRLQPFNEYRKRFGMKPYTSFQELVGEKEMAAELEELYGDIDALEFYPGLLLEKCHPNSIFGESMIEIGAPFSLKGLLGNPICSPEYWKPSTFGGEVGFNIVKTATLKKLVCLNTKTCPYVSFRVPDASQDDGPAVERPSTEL", "assay": "Inhibition of COX-1 (unknown origin) using arachidonic acid as substrate at 100 uM preincubated for 5 mins followed by substrate addition and measured after 15 mins relative to control", "conditions": "time 20.0 min", "units": {"inhibition": "%"}, "values": [{"smiles": "COc1cc2c(cc1O)CN1CC[C@H]2C(=O)C[C@@H](O[C@@H]2O[C@H](CO)[C@@H](OC)[C@H](OC)[C@H]2OC)[C@H](O)C1=O", "inhibition": "> 64"}, {"smiles": "COc1cc2c(cc1OC)[C@H]1CCN(C2)C(=O)[C@@H](O)[C@H](O[C@@H]2O[C@H](C)[C@@H](OC)[C@H](OC)[C@H]2OC)CC1=O", "inhibition": "> 64"}, {"smiles": "COc1cc2c(cc1OC)[C@H]1CCN(C2)C(=O)[C@@H](O)[C@H](O[C@@H]2O[C@H](C)[C@@H](OC)[C@@H]3OCOCO[C@@H]23)CC1=O", "inhibition": "> 64"}, {"smiles": "CO[C@H]1[C@@H]2OCOCO[C@H]2[C@H](O[C@@H]2CC(=O)[C@@H]3CCN(Cc4cc5c(cc43)OCO5)C(=O)[C@H]2O)O[C@@H]1C", "inhibition": "> 64"}, {"smiles": "COc1c2c(cc3c1OCO3)[C@H]1CCN(C2)C(=O)[C@@H](O)[C@H](O[C@@H]2O[C@H](CO)[C@@H](OC)[C@H](OC)[C@H]2OC)CC1=O", "inhibition": "> 64"}]}, {"system": "RAW264.7", "assay": "Antiinflammatory activity against LPS-stimulated mouse RAW264.7 cells assessed as inhibition of IL-1beta production at 20 uM preincubated for 27 hrs followed by LPS stimulation and measured after 12 hrs by ELISA analysis relative to control", "assay_type": "functional", "conditions": "time 39 hrs", "units": {"inhibition at 20 µM": "%"}, "values": [{"smiles": "CC1(C)C=Cc2c(ccc3c2NC(=O)[C@@]32C[C@]34NC(=O)[C@]5(CCCN5C3=O)C[C@H]4C2(C)C)O1", "inhibition at 20 µM": "> 32.6"}, {"smiles": "C=CC(C)(C)[C@@]1(C[C@@H]2NC(=O)[C@@H]3CCCN3C2=O)C(=O)Nc2c1ccc(O)c2CC=C(C)C", "inhibition at 20 µM": "> 32.6"}, {"smiles": "CC1(C)C=Cc2c(ccc3c4c([nH]c23)C(C)(C)[C@@H]2C[C@]35CCCN3C(=O)[C@]2(C4)NC5=O)O1", "inhibition at 20 µM": "> 32.6"}, {"smiles": "CC1(C)C=Cc2c(ccc3c4c(n(S(C)(=O)=O)c23)C(C)(C)[C@@H]2C[C@]35CCCN3C(=O)[C@]2(C4)NC5=O)O1", "inhibition at 20 µM": "> 32.6"}]}, {"system": "not listed separately", "assay": "Inhibition of TNF-alpha production in LPS-stimulated human PBMC cells", "assay_type": "functional, cell-based", "conditions": "not given", "units": {"IC50": "µM"}, "values": [{"smiles": "COc1cc(Cc2ccc3c(c2)[nH]c2c4c(c(C)cc23)OC(C)(CCC=C(C)C)C=C4)cc2c1[nH]c1ccccc12", "note": "(stereo not given)", "IC50": 10}, {"smiles": "COc1cc(C)cc2c1[nH]c1ccccc12", "note": "[MURRAYAFOLINE A]", "IC50": 7}, {"smiles": "COc1ccc2c(c1)[nH]c1c3c(c(C)cc12)OC(C)(C)C=C3", "IC50": 9.4}]}, {"system": "RAW264.7", "assay": "Antiinflammatory activity against LPS-stimulated mouse RAW264.7 cells assessed as inhibition of TNF-alpha production incubated for 24 hrs by ELISA analysis relative to control", "assay_type": "functional", "conditions": "not given", "units": {"inhibition (INH)": "%"}, "values": [{"smiles": "O=c1cccc2n1C[C@@H]1C[C@H]2CN2CCCC[C@@H]12", "inhibition (INH)": ">40"}, {"smiles": "O=c1cccc2n1C[C@@H]1CCCN3CCC[C@@H]2[C@H]13", "inhibition (INH)": ">40"}]}, {"system": "RAW264.7", "assay": "Antiinflammatory activity against LPS-stimulated mouse RAW264.7 cells assessed as inhibition of IL-6 production incubated for 24 hrs by ELISA analysis relative to control", "assay_type": "functional", "conditions": "not given", "units": {"inhibition (INH)": "%"}, "values": [{"smiles": "O=c1cccc2n1C[C@@H]1C[C@H]2CN2CCCC[C@@H]12", "inhibition (INH)": ">40"}, {"smiles": "O=c1cccc2n1C[C@@H]1CCCN3CCC[C@@H]2[C@H]13", "inhibition (INH)": ">40"}]}, {"system": "not listed separately", "assay": "Inhibition of IL6 production in LPS-stimulated human PBMC cells", "assay_type": "functional, cell-based", "conditions": "not given", "units": {"IC50": "µM"}, "values": [{"smiles": "COc1cc(C)cc2c1[nH]c1ccccc12", "note": "[MURRAYAFOLINE A]", "IC50": 8.4}, {"smiles": "COc1ccc2c(c1)[nH]c1c3c(c(C)cc12)OC(C)(C)C=C3", "IC50": 8.4}]}]}
